“And” between values parts separate entries of the source, which are not always exact repeats. Equal entries are not always repeated. Toxic doses and inconclusive results are not listed. The calls were made as follows: active = survival T/C of 150% or more; inactive = T/C below 125% in these data.
Test system: CD2F1 mice, L1210 leukemia ip, survival T/C
Test: NCI In Vivo Anticancer Drug Screen. Data for tumor model L1210 Leukemia (intraperitoneal) in CD2F1 (CDF1) mice
Settings: higher = longer survival
Method in brief: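 Read-out first: treated-group measurement over vehicle-control measurement, expressed as a ratio. Animals bore a transplanted tumor line and were dosed with compound or vehicle.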

[1] = endpoint: mean survival time, dose: 12.5 mg/kg/injection, schedule: Q01DX009 (ip), vehicle: saline with Tween-80
[2] = endpoint: mean survival time, dose: 100.0 mg/kg/injection, schedule: Q01DX009 (ip), vehicle: saline with Tween-80
[3] = endpoint: mean survival time, dose: 200.0 mg/kg/injection, schedule: Q01DX009 (ip), vehicle: saline with Tween-80
[4] = endpoint: mean survival time, dose: 100.0 mg/kg/injection, schedule: Q01DX001 (ip), vehicle: saline with Tween-80
[5] = endpoint: mean survival time, dose: 200.0 mg/kg/injection, schedule: Q01DX001 (ip), vehicle: saline with Tween-80
[6] = endpoint: mean survival time, dose: 400.0 mg/kg/injection, schedule: Q01DX001 (ip), vehicle: saline with Tween-80
[7] = endpoint: mean survival time, dose: 25.0 mg/kg/injection, schedule: Q01DX001 (ip), vehicle: saline with Tween-80
[8] = endpoint: mean survival time, dose: 50.0 mg/kg/injection, schedule: Q01DX001 (ip), vehicle: saline with Tween-80
[9] = endpoint: mean survival time, dose: 50.0 mg/kg/injection, schedule: Q01DX001 (ip), vehicle: Klucel (hydroxypropylcellulose) (HPC)
[10] = endpoint: mean survival time, dose: 100.0 mg/kg/injection, schedule: Q04DX003 (ip), vehicle: saline with Tween-80
[11] = endpoint: mean survival time, dose: 200.0 mg/kg/injection, schedule: Q04DX003 (ip), vehicle: saline with Tween-80
[12] = endpoint: mean survival time, dose: 400.0 mg/kg/injection, schedule: Q04DX003 (ip), vehicle: saline with Tween-80

Measured: T/C

OCCOCC(F)(F)F
inactive: endpoint: mean survival time, dose: 6.25 mg/kg/injection, schedule: Q01DX009 (ip), vehicle: saline with Tween-80 100 % of control | [1] 90 % of control and 112 % of control | endpoint: mean survival time, dose: 25.0 mg/kg/injection, schedule: Q01DX009 (ip), vehicle: saline with Tween-80 95 % of control and 102 % of control | endpoint: mean survival time, dose: 50.0 mg/kg/injection, schedule: Q01DX009 (ip), vehicle: saline with Tween-80 94 % of control and 100 % of control | [2] 94 % of control and 100 % of control | [3] 94 % of control and 110 % of control

Oc1ccc2cc3ccccc3cc2c1
inactive: endpoint: mean survival time, dose: 25.0 mg/kg/injection, schedule: Q01DX001 (ip), vehicle: DMSO 104 % of control | endpoint: mean survival time, dose: 50.0 mg/kg/injection, schedule: Q01DX001 (ip), vehicle: DMSO 93 % of control | endpoint: mean survival time, dose: 100.0 mg/kg/injection, schedule: Q01DX001 (ip), vehicle: DMSO 87 % of control and 93 % of control

C[CH2][Sn]1([CH2]C)[O]C2C(CO)OC(n3cnc4c(N)ncnc43)C2[O]1 (stereo not drawn)
inactive: endpoint: mean survival time, dose: 1.56 mg/kg/injection, schedule: Q01DX005 (ip), vehicle: other 100 % of control | endpoint: mean survival time, dose: 3.13 mg/kg/injection, schedule: Q01DX005 (ip), vehicle: other 102 % of control | endpoint: mean survival time, dose: 6.25 mg/kg/injection, schedule: Q01DX005 (ip), vehicle: other 104 % of control | endpoint: mean survival time, dose: 12.5 mg/kg/injection, schedule: Q01DX005 (ip), vehicle: other 105 % of control and 106 % of control

NCc1cccc(-c2nc3ncnc(N)c3[nH]2)c1
inactive: endpoint: mean survival time, dose: 50.0 mg/kg/injection, schedule: Q01DX009 (ip), vehicle: saline 101 % of control | endpoint: mean survival time, dose: 100.0 mg/kg/injection, schedule: Q01DX009 (ip), vehicle: saline 105 % of control

C(=C\c1ccccn1)/c1ccccc1
inactive: [4] 100 % of control | [2] 94 % of control | [5] 89 % of control | [3] 101 % of control | [6] 92 % of control

Cc1ncc(COP(=O)(O)O)c(C=NC(CCCCN)C(=O)O)c1O.O.[Cu] (stereo not drawn)
inactive: endpoint: mean survival time, dose: 12.5 mg/kg/injection, schedule: Q01DX001 (ip), vehicle: saline with Tween-80 98 % of control | [7] 92 % of control | [8] 98 % of control

CCOC(=O)Nc1cc(NCc2ccccc2)c([N+](=O)[O-])c(N)n1
inactive: endpoint: mean survival time, dose: 12.5 mg/kg/injection, schedule: Q01DX001 (ip), vehicle: Klucel (hydroxypropylcellulose) (HPC) 109 % of control | endpoint: mean survival time, dose: 25.0 mg/kg/injection, schedule: Q01DX001 (ip), vehicle: Klucel (hydroxypropylcellulose) (HPC) 101 % of control | [9] 91 % of control

CN(C)N=Nc1ccc([N+](=O)[O-])cc1C(N)=O
inactive: endpoint: mean survival time, dose: 18.8 mg/kg/injection, schedule: Q01DX009 (ip), vehicle: Klucel (hydroxypropylcellulose) (HPC) 95 % of control and 101 % of control | endpoint: mean survival time, dose: 37.5 mg/kg/injection, schedule: Q01DX009 (ip), vehicle: Klucel (hydroxypropylcellulose) (HPC) 96 % of control and 110 % of control | endpoint: mean survival time, dose: 75.0 mg/kg/injection, schedule: Q01DX009 (ip), vehicle: Klucel (hydroxypropylcellulose) (HPC) 101 % of control and 110 % of control | endpoint: mean survival time, dose: 300.0 mg/kg/injection, schedule: Q01DX009 (ip), vehicle: Klucel (hydroxypropylcellulose) (HPC) 89 % of control

CCOc1ccc(NC2OC(CO)C(O)C(O)C2O)cc1 (stereo not drawn)
inactive: endpoint: mean survival time, dose: 100.0 mg/kg/injection, schedule: Q01DX001 (ip), vehicle: saline 100 % of control | endpoint: mean survival time, dose: 200.0 mg/kg/injection, schedule: Q01DX001 (ip), vehicle: saline 108 % of control

Cc1c(Cl)cccc1NS(=O)(=O)c1cccc([N+](=O)[O-])c1
inactive: [10] 88 % of control | [11] 92 % of control | [12] 86 % of control

CC(=O)c1ccc2c([N+](=O)[O-])ccc3c2c1CC3
inactive: [4] 97 % of control | [5] 91 % of control | [6] 94 % of control

O=C(Nc1cc(S(=O)(=O)O)ccc1Oc1ccccc1Cl)Nc1cc(S(=O)(=O)O)ccc1Oc1ccccc1Cl
inactive: endpoint: mean survival time, dose: 100.0 mg/kg/injection, schedule: Q01DX009 (ip), vehicle: Klucel (hydroxypropylcellulose) (HPC) 101 % of control | [10] 95 % of control | endpoint: mean survival time, dose: 200.0 mg/kg/injection, schedule: Q01DX009 (ip), vehicle: Klucel (hydroxypropylcellulose) (HPC) 98 % of control | [11] 95 % of control | endpoint: mean survival time, dose: 400.0 mg/kg/injection, schedule: Q01DX009 (ip), vehicle: Klucel (hydroxypropylcellulose) (HPC) 97 % of control | [12] 98 % of control

O=C1N(c2ccccc2)CCS1(=O)=O
inactive: endpoint: mean survival time, dose: 9.5 mg/kg/injection, schedule: Q01DX001 (ip), vehicle: other 101 % of control | endpoint: mean survival time, dose: 19.0 mg/kg/injection, schedule: Q01DX001 (ip), vehicle: other 100 % of control | endpoint: mean survival time, dose: 38.0 mg/kg/injection, schedule: Q01DX001 (ip), vehicle: other 106 % of control

CC1CCC(C(C)C)C(NCCO)C1 (stereo not drawn)
inactive: endpoint: mean survival time, dose: 18.8 mg/kg/injection, schedule: Q01DX009 (ip), vehicle: saline 96 % of control | endpoint: mean survival time, dose: 37.5 mg/kg/injection, schedule: Q01DX009 (ip), vehicle: saline 97 % of control | endpoint: mean survival time, dose: 75.0 mg/kg/injection, schedule: Q01DX009 (ip), vehicle: saline 100 % of control

CC(C)C(C)/C=C/CC(C)C1CCC2C1(C)CCCC21C2CC3=C(CC(OC(=O)NC(N)=O)CC3)C21 (stereo not drawn)
inactive: [2] 95 % of control | [3] 104 % of control | endpoint: mean survival time, dose: 400.0 mg/kg/injection, schedule: Q01DX009 (ip), vehicle: saline with Tween-80 87 % of control

COC(=O)CC1CCS(=O)(=O)C1 (stereo not drawn)
inactive: [10] 98 % of control | [11] 93 % of control | [12] 92 % of control

O=C(c1ccccc1)C(Br)C(Br)c1ccc([N+](=O)[O-])cc1 (stereo not drawn)
inactive: endpoint: mean survival time, dose: 100.0 mg/kg/injection, schedule: Q04DX002 (ip), vehicle: saline with Tween-80 89 % of control | endpoint: mean survival time, dose: 200.0 mg/kg/injection, schedule: Q04DX002 (ip), vehicle: saline with Tween-80 101 % of control | endpoint: mean survival time, dose: 400.0 mg/kg/injection, schedule: Q04DX002 (ip), vehicle: saline with Tween-80 101 % of control

CCOC(=O)c1ccc(NC(N)=S)cc1
inactive: endpoint: mean survival time, dose: 50.0 mg/kg/injection, schedule: Q01DX009 (ip), vehicle: other 98 % of control | endpoint: mean survival time, dose: 100.0 mg/kg/injection, schedule: Q01DX009 (ip), vehicle: other 95 % of control | endpoint: mean survival time, dose: 200.0 mg/kg/injection, schedule: Q01DX009 (ip), vehicle: other 95 % of control | endpoint: mean survival time, dose: 400.0 mg/kg/injection, schedule: Q01DX009 (ip), vehicle: other 91 % of control

CCC1c2ccc3cc(O)ccc3c2CCC1(C)C(=O)OC (stereo not drawn)
inactive: [9] 96 % of control | endpoint: mean survival time, dose: 100.0 mg/kg/injection, schedule: Q01DX001 (ip), vehicle: Klucel (hydroxypropylcellulose) (HPC) 96 % of control | endpoint: mean survival time, dose: 200.0 mg/kg/injection, schedule: Q01DX001 (ip), vehicle: Klucel (hydroxypropylcellulose) (HPC) 104 % of control

O=C(c1ccc2c(c1)OCO2)c1ccc[nH]1
inactive: [10] 94 % of control | [11] 91 % of control

CC[N+](CC)(CC)CC
inactive: endpoint: mean survival time, dose: 0.37 mg/kg/injection, schedule: Q01DX009 (ip), vehicle: saline with Tween-80 110 % of control | endpoint: mean survival time, dose: 0.75 mg/kg/injection, schedule: Q01DX009 (ip), vehicle: saline with Tween-80 96 % of control | endpoint: mean survival time, dose: 1.5 mg/kg/injection, schedule: Q01DX009 (ip), vehicle: saline with Tween-80 96 % of control | endpoint: mean survival time, dose: 3.0 mg/kg/injection, schedule: Q01DX009 (ip), vehicle: saline with Tween-80 100 % of control | endpoint: mean survival time, dose: 6.0 mg/kg/injection, schedule: Q01DX009 (ip), vehicle: saline with Tween-80 110 % of control | endpoint: mean survival time, dose: 6.25 mg/kg/injection, schedule: Q04DX003 (ip), vehicle: saline with Tween-80 100 % of control | endpoint: mean survival time, dose: 12.0 mg/kg/injection, schedule: Q01DX009 (ip), vehicle: saline with Tween-80 96 % of control | [1] 88 % of control | endpoint: mean survival time, dose: 12.5 mg/kg/injection, schedule: Q04DX003 (ip), vehicle: saline with Tween-80 100 % of control

CCCP(=O)(CCC)CCC
inactive: [7] 94 % of control | [8] 96 % of control | [4] 94 % of control

O=C(CBr)CC(=O)Nc1ccccc1
inactive: endpoint: mean survival time, dose: 50.0 mg/kg/injection, schedule: Q04DX003 (ip), vehicle: saline with Tween-80 101 % of control | [10] 88 % of control

C1CCC(C2CCCC[N-]2)[N-]C1.CC(C)CC([NH-])C(=O)O.[Cl][Pt] (stereo not drawn)
inactive: endpoint: median survival time, dose: 10.0 mg/kg/injection, schedule: Q04DX003 (ip), vehicle: saline 96 % of control | endpoint: median survival time, dose: 20.0 mg/kg/injection, schedule: Q04DX003 (ip), vehicle: saline 100 % of control | endpoint: median survival time, dose: 40.0 mg/kg/injection, schedule: Q04DX003 (ip), vehicle: saline 97 % of control | endpoint: median survival time, dose: 80.0 mg/kg/injection, schedule: Q04DX003 (ip), vehicle: saline 101 % of control and 104 % of control | endpoint: median survival time, dose: 160.0 mg/kg/injection, schedule: Q04DX003 (ip), vehicle: saline 104 % of control | endpoint: median survival time, dose: 320.0 mg/kg/injection, schedule: Q04DX003 (ip), vehicle: saline 93 % of control

Reference: PubChem BioAssay AID256 (DTP/NCI, 2004)
